# Measured values from publication PMC4411398 (Science signaling, 2012).
# Columns and labels:
# Format in all cases: biochemical
# GC-A = target: T1, GC-A (Rattus norvegicus, UniProt P18910); assay: GC assay; conditions: for EC50: EC50 for activation; for increase of ANP-stimulated GC-A activity by adenine nucleotide: saturating ANP
# T1 sequence (P18910 29-1057): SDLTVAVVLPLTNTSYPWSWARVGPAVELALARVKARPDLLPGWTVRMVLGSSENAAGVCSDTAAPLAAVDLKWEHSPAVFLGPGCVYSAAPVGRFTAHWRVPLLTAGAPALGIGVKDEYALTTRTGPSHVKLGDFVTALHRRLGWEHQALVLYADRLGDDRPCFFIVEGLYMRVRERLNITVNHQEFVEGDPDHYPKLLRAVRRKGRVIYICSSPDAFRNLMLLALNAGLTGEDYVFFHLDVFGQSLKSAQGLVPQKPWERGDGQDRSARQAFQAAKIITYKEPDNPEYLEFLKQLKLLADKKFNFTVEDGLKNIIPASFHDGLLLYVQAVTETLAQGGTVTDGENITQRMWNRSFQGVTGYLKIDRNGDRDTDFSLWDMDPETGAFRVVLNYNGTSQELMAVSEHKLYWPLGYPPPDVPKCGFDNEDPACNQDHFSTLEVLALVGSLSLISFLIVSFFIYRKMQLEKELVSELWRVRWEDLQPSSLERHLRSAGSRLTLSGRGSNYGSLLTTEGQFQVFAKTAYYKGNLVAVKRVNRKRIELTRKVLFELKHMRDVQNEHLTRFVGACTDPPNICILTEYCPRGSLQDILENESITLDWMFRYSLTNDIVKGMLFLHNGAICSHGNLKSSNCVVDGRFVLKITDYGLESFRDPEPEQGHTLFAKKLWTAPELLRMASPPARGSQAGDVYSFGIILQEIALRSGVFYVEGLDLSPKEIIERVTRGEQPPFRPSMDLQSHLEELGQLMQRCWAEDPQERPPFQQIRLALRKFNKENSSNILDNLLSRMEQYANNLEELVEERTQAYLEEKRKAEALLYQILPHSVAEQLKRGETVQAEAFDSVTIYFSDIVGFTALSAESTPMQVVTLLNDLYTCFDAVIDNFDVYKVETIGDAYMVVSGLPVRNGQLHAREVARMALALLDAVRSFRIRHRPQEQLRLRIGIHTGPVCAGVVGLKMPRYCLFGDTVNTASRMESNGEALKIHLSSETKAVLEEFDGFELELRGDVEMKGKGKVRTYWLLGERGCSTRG
# T1 sequence (P01161 123-150 partner limits assumed): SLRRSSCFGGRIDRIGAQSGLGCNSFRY
# GC-B = GC-B (Rattus norvegicus, UniProt P16067); assay: GC assay
# endogenous GC-B = endogenous GC-B (Mus musculus, UniProt Q6VVW5); assay: GC assay in crude membranes from NIH 3T3 cells; conditions: 125 nM CNP, 0.1 mM GTP
# [1] = 1 μM ANP, 9 min, nucleotide at 1 mM
# [2] = NP-stimulated, 9 min, 10 μM ATP
# [3] = NP-stimulated, 9 min, 100 μM ATP
# [4] = CNP-stimulated, presence of ATP
# [5] = NP-stimulated, 9 min, 750 μM ATP
# [6] = presence of CNP, absence of ATP, increasing Mg2+GTP
# Chain of GC-B (P16067 17-1047): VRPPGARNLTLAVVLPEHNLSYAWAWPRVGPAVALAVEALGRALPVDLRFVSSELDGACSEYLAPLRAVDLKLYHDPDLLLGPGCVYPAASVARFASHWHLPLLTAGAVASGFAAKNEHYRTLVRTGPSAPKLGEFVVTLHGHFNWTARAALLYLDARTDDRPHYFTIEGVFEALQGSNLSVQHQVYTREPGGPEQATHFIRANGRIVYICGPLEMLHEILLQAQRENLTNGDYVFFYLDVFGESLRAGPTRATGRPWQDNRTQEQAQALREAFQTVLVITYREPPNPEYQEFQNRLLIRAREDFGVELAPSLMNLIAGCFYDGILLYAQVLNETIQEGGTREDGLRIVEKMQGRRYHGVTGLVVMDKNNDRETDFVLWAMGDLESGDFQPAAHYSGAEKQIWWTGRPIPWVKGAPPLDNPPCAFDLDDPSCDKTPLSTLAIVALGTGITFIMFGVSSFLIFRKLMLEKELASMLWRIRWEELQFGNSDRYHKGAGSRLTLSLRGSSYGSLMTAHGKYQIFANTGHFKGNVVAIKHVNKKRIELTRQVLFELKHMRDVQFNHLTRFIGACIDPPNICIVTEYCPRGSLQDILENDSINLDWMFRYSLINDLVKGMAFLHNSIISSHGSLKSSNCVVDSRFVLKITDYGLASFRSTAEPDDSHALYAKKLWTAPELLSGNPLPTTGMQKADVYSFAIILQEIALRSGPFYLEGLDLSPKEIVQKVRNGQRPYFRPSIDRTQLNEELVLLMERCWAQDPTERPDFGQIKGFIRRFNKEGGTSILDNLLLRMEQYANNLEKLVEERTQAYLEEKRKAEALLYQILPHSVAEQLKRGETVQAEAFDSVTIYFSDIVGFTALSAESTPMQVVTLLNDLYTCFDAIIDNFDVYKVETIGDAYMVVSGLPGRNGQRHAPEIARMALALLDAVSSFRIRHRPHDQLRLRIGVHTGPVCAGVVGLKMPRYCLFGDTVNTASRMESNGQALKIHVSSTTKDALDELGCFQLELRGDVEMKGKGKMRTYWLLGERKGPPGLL
# Chain of GC-B (P55207 105-126 partner limits assumed): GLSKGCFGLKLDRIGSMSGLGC
# Chain of endogenous GC-B (Q6VVW5 17-1047): as the sequence (P16067 17-1047) above, with H100R, T188A, E385D, I449V, R1024Q counted along it
molecule,measurement,setting,value
"Nc1ncnc2c1ncn2[C@@H]1O[C@H](COP(=O)(O)OP(=O)(O)OP(=O)(O)O)[C@@H](O)[C@H]1O [ATP, adenosine triphosphate]",Km,GC-A; [1],100 ± 20 µM
same,EC50,"GC-A; NP-stimulated, 0.1 mM GTP",77 µM
same,EC50,"GC-A; NP-stimulated, 0.3 mM GTP",38 µM
same,EC50,"GC-A; NP-stimulated, 0.9 mM GTP",38 µM
same,EC50,"GC-A; NP-stimulated, 5.4 mM GTP",16 µM
same,Km,"GC-A; NP-activated receptor, presence of ATP",~100 µM
same,Hill coefficient,GC-A; [2],1.2 ± 0.08
same,Hill coefficient,GC-A; [3],0.9 ± 0.07
same,Michaelis constant,GC-A; [3],0.08 ± 0.010 mM
same,S0.5,GC-B; [4],0.09 ± 0.02 mM
same,Vmax,GC-B; [4],41 ± 3.1 nmol mg^−1 (9 min)^−1
same,EC50,"GC-B; EC50 for ATP activation, approximate value stated in the discussion",~100 µM
same,EC50,"GC-B; EC50 for activation, NP-stimulated, 0.1 mM GTP",40 µM
same,EC50,"GC-B; EC50 for activation, NP-stimulated, 0.3 mM GTP",26 µM
same,EC50,"GC-B; EC50 for activation, NP-stimulated, 0.9 mM GTP",16 µM
same,EC50,"GC-B; EC50 for activation, NP-stimulated, 5.4 mM GTP",19 µM
same,Hill coefficient,GC-B; [2],0.9 ± 0.13
same,Michaelis constant,GC-B; [2],0.4 ± 0.11 mM
same,Hill coefficient,GC-B; [5],0.9 ± 0.24
same,Michaelis constant,GC-B; [5],0.2 ± 0.18 mM
same,Hill coefficient,"GC-B; absence of NPs, presence of ATP",1.1
same,S0.5,"GC-B; basal (no NP), presence of ATP",1.0 ± 0.15 mM
same,Vmax,"GC-B; basal (no NP), presence of ATP",4 ± 0.3 nmol mg^−1 (9 min)^−1
"Nc1ncnc2c1ncn2[C@@H]1O[C@H](COP(=O)(O)OP(=O)(O)O)[C@@H](O)[C@H]1O [ADP, adenosine diphosphate]",Hill coefficient,GC-A; [1],1.1 ± 0.18
same,Km,GC-A; [1],200 ± 40 µM
"Nc1ncnc2c1ncn2[C@@H]1O[C@H](COP(=O)(O)O)[C@@H](O)[C@H]1O [AMP, adenosine monophosphate]",increase of ANP-stimulated GC-A activity by adenine nucleotide,GC-A; 0.1 mM GTP,failed to increase activity
C-type natriuretic peptide [CNP],increase of maximal velocity,GC-B; absence of ATP,13 fold
same,S0.5,GC-B; [6],1.0 ± 0.15 mM
same,Vmax,GC-B; [6],49 ± 3.7 nmol mg^−1 (9 min)^−1
same,increase of GC-B activity,endogenous GC-B; absence of ATP,no statistically significant increase in activity
same,increase of GC-B activity,endogenous GC-B; presence of 1 mM ATP,more than fourfold
Nc1ncnc2c1ncn2[C@@H]1O[C@H](CO)[C@@H](O)[C@H]1O [adenosine],increase of ANP-stimulated GC-A activity by adenine nucleotide,GC-A; 0.1 mM GTP,failed to increase activity
Nc1ncnc2c1ncn2[C@H]1C[C@H](O)[C@@H](COP(=O)(O)OP(=O)(O)OP(=O)(O)O)O1 [2′-deoxy-ATP],Hill coefficient,GC-A; [1],1.2 ± 0.24
same,Km,GC-A; [1],400 ± 80 µM
same,activation of GC-A compared with ATP,"GC-A; single-substrate concentration GC assays, 0.1 mM GTP, ANP",poorer activator of GC-A than was ATP
